Measured values published in patent US7253175B2, “Method for treating athlete's foot” (priority 2003, dated 2007).
Where a name gives a salt, the structure may show the parent alone.

System: athlete's foot (fungal infection of toe nails and skin of the feet)
Assay: Treatment of a patient with athlete's foot (case example)
Type: in vivo, human
Description: Fungal infections, including tineapedis (fungal infections on the feet), tineamanus (fungal infections on the hands) and tineacorporis (fungal infections on the body), are diagnosed by methods or tests commonly conducted by a person of ordinary skill in the art. The common symptoms of such disease are described above. In the case of fungal infection on nails such as finger nails and toenails, the infected areas usually show thickening of the nails with white spots, while if the skin is infected, itching scaling, redness and/or blisters will appear. A laboratory test may be conducted by culturing a skin sample or nail sample in the infected area in an appropriate medium to observe the growth of fungi. The infections may also be identified by scraping the infected skin or nail and examining the such specimen under a microscope in the presence of potassium hydroxide, which assists to determine the presence of fungi.
A patient suffered from athlete's foot for four years. The patients toe nails had became whitening, thickening and cracking due to the infection. […] The patient was reported to experienced pain due to the thickening and cracking of the toe nails the swelling of the skin. […]

With `CC(C)[C@H](N)C(=O)OCCOCn1cnc2c(=O)[nH]c(N)nc21` [Valtrex, L-valine, 2-[(2-amino-1,6-dihydro-6-oxo-9H-purin-9-yl)methoxy]ethyl ester, monhydrochloride] the “laboratory test for fungal infections on the patient's toe nails and skin” value (after daily dosage of three grams divided into three times for seven days) was “no longer fungal infections” and the “symptoms of the patient's athlete's foot at the end of treatment” value (patient, about 230 pounds, daily dosage of three grams divided into three times for seven days) was “completely disappear”.
